Experimental data published in the supplement of paper PMC11665569.
± gives the standard deviation of the averaged measurements.

Key:
H1373 [1] = settings: treatment time: 5 days
Procedure: (§1)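 CCK-8 viability of KRAS G12C-mutant cancer cell lines transfected with control, YAP/TAZ or TEAD1-4 siRNAs and treated with KRAS G12C inhibitors for 5 days; IC50 fitted in Prism after normalising absorbance at 450 nm to vehicle control.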

H1792 = settings: siRNA knockdown (Con = control): Con; treatment time: 5 days
Procedure: as §1

H2030 = settings: treatment time: 5 days
Procedure: as §1

H358 [2] = settings: treatment time: 5 days
Procedure: as §1

KYSE410 = settings: treatment time: 5 days
Procedure: as §1

MIAPACA2 [3] = settings: treatment time: 5 days
Procedure: as §1

SW1573 = settings: treatment time: 5 days
Procedure: as §1

MIAPACA2 [4] = test: relative viability (fraction of vehicle control); higher = more viable / less inhibited; settings: treatment time: 5 days
Procedure: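 CCK-8 viability of MIAPACA2 cells with empty vector or constitutively active YAP S127A, treated with KRAS G12C inhibitors for 5 days, normalised to vehicle control.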

H1373 [5] = test: as above; settings: treatment time: 5 days
Procedure: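 CCK-8 viability of H1373 cells with empty vector or constitutively active YAP S127A, treated with KRAS G12C inhibitors for 5 days, normalised to vehicle control.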

H358 [6] = test: as above; settings: treatment time: 5 days
Procedure: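 CCK-8 viability of H358 cells with empty vector or constitutively active YAP S127A, treated with KRAS G12C inhibitors for 5 days. Absorbance at 450 nm normalised to vehicle control.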

C=CC(=O)N1CCN(c2nc(=O)n(-c3c(C)ccnc3C(C)C)c3nc(-c4c(O)cccc4F)c(F)cc23)[C@@H](C)C1 [AMG510]
Settings | IC50 (cell viability, 5 days) [µM] | relative viability
H358 [2], siRNA knockdown (Con = control): Con | 0.00718 | –
H358 [2], siRNA knockdown (Con = control): TEAD1234_si1 | 0.00408 | –
H358 [2], siRNA knockdown (Con = control): TEAD1234_si2 | 0.00417 | –
H358 [2], siRNA knockdown (Con = control): YAP_WWTR1_si1 | 0.00408 | –
H358 [2], siRNA knockdown (Con = control): YAP_WWTR1_si2 | 0.00296 | –
H358 [6], log10 concentration (uM): 0, ectopic expression: YAP S127A | – | 0.42 ± 0.04
H358 [6], log10 concentration (uM): 0, ectopic expression: empty vector (YAP experiment) | – | 0.15 ± 0.017
H358 [6], log10 concentration (uM): 1, ectopic expression: YAP S127A | – | 0.46 ± 0.053
H358 [6], log10 concentration (uM): 1, ectopic expression: empty vector (YAP experiment) | – | 0.183 ± 0.029
H358 [6], log10 concentration (uM): 1.301029996, ectopic expression: YAP S127A | – | 0.327 ± 0.19
H358 [6], log10 concentration (uM): 1.301029996, ectopic expression: empty vector (YAP experiment) | – | 0.172 ± 0.025
H358 [6], log10 concentration (uM): -1, ectopic expression: YAP S127A | – | 0.453 ± 0.023
H358 [6], log10 concentration (uM): -1, ectopic expression: empty vector (YAP experiment) | – | 0.256 ± 0.025
H358 [6], log10 concentration (uM): -1.30103, ectopic expression: YAP S127A | – | 0.52 ± 0.06
H358 [6], log10 concentration (uM): -1.30103, ectopic expression: empty vector (YAP experiment) | – | 0.433 ± 0.14
H358 [6], log10 concentration (uM): -2, ectopic expression: YAP S127A | – | 0.727 ± 0.12
H358 [6], log10 concentration (uM): -2, ectopic expression: empty vector (YAP experiment) | – | 0.822 ± 0.048
H358 [6], log10 concentration (uM): -2.30103, ectopic expression: YAP S127A | – | 0.753 ± 0.046
H358 [6], log10 concentration (uM): -2.30103, ectopic expression: empty vector (YAP experiment) | – | 0.822 ± 0.14
H358 [6], log10 concentration (uM): -3, ectopic expression: YAP S127A | – | 0.96 ± 0.072
H358 [6], log10 concentration (uM): -3, ectopic expression: empty vector (YAP experiment) | – | 0.828 ± 0.11
H358 [6], log10 concentration (uM): -4, ectopic expression: YAP S127A | – | 0.873 ± 0.031
H358 [6], log10 concentration (uM): -4, ectopic expression: empty vector (YAP experiment) | – | 1.01 ± 0.082
H1373 [1], siRNA knockdown (Con = control): Con | 0.0307 | –
H1373 [1], siRNA knockdown (Con = control): YAP_WWTR1_si1 | 0.0102 | –
H1373 [1], siRNA knockdown (Con = control): YAP_WWTR1_si2 | 0.00431 | –
H1373 [5], log10 concentration (uM): 0, ectopic expression: YAP S127A | – | 0.575 ± 0.03
H1373 [5], log10 concentration (uM): 0, ectopic expression: empty vector (YAP experiment) | – | 0.267 ± 0.027
H1373 [5], log10 concentration (uM): 1, ectopic expression: YAP S127A | – | 0.47 ± 0.026
H1373 [5], log10 concentration (uM): 1, ectopic expression: empty vector (YAP experiment) | – | 0.245 ± 0.033
H1373 [5], log10 concentration (uM): 1.301029996, ectopic expression: YAP S127A | – | 0.25 ± 0.012
H1373 [5], log10 concentration (uM): 1.301029996, ectopic expression: empty vector (YAP experiment) | – | 0.12 ± 0.022
H1373 [5], log10 concentration (uM): -1, ectopic expression: YAP S127A | – | 0.581 ± 0.04
H1373 [5], log10 concentration (uM): -1, ectopic expression: empty vector (YAP experiment) | – | 0.351 ± 0.023
H1373 [5], log10 concentration (uM): -1.30103, ectopic expression: YAP S127A | – | 0.619 ± 0.042
H1373 [5], log10 concentration (uM): -1.30103, ectopic expression: empty vector (YAP experiment) | – | 0.407 ± 0.021
H1373 [5], log10 concentration (uM): -2, ectopic expression: YAP S127A | – | 0.636 ± 0.099
H1373 [5], log10 concentration (uM): -2, ectopic expression: empty vector (YAP experiment) | – | 0.624 ± 0.038
H1373 [5], log10 concentration (uM): -2.30103, ectopic expression: YAP S127A | – | 0.71 ± 0.067
H1373 [5], log10 concentration (uM): -2.30103, ectopic expression: empty vector (YAP experiment) | – | 0.68 ± 0.066
H1373 [5], log10 concentration (uM): -3, ectopic expression: YAP S127A | – | 0.834 ± 0.083
H1373 [5], log10 concentration (uM): -3, ectopic expression: empty vector (YAP experiment) | – | 0.937 ± 0.042
H1373 [5], log10 concentration (uM): -4, ectopic expression: YAP S127A | – | 0.986 ± 0.055
H1373 [5], log10 concentration (uM): -4, ectopic expression: empty vector (YAP experiment) | – | 1.01 ± 0.06
H2030, siRNA knockdown (Con = control): TEAD1234_si2 | 0.0109 | –
H2030, siRNA knockdown (Con = control): YAP_WWTR1_si1 | 0.00818 | –
KYSE410, siRNA knockdown (Con = control): Con | 3.54 | –
KYSE410, siRNA knockdown (Con = control): TEAD1234_si1 | 0.853 | –
KYSE410, siRNA knockdown (Con = control): YAP_WWTR1_si1 | 0.163 | –
KYSE410, siRNA knockdown (Con = control): YAP_WWTR1_si2 | 0.0335 | –
MIAPACA2 [3], siRNA knockdown (Con = control): Con | 0.163 | –
MIAPACA2 [3], siRNA knockdown (Con = control): TEAD1234_si1 | 0.0661 | –
MIAPACA2 [3], siRNA knockdown (Con = control): TEAD1234_si2 | 0.0575 | –
MIAPACA2 [3], siRNA knockdown (Con = control): YAP_WWTR1_si1 | 0.0463 | –
MIAPACA2 [3], siRNA knockdown (Con = control): YAP_WWTR1_si2 | 0.0699 | –
MIAPACA2 [4], log10 concentration (uM): 0, ectopic expression: YAP S127A | – | 0.773 ± 0.0088
MIAPACA2 [4], log10 concentration (uM): 0, ectopic expression: empty vector (YAP experiment) | – | 0.0894 ± 0.0063
MIAPACA2 [4], log10 concentration (uM): 1, ectopic expression: YAP S127A | – | 0.727 ± 0.084
MIAPACA2 [4], log10 concentration (uM): 1, ectopic expression: empty vector (YAP experiment) | – | 0.106 ± 0.0058
MIAPACA2 [4], log10 concentration (uM): 1.301029996, ectopic expression: YAP S127A | – | 0.285 ± 0.026
MIAPACA2 [4], log10 concentration (uM): 1.301029996, ectopic expression: empty vector (YAP experiment) | – | 0.047 ± 0.0069
MIAPACA2 [4], log10 concentration (uM): -1, ectopic expression: YAP S127A | – | 0.861 ± 0.027
MIAPACA2 [4], log10 concentration (uM): -1, ectopic expression: empty vector (YAP experiment) | – | 0.128 ± 0.0098
MIAPACA2 [4], log10 concentration (uM): -1.30103, ectopic expression: YAP S127A | – | 0.91 ± 0.013
MIAPACA2 [4], log10 concentration (uM): -1.30103, ectopic expression: empty vector (YAP experiment) | – | 0.237 ± 0.051
MIAPACA2 [4], log10 concentration (uM): -2, ectopic expression: YAP S127A | – | 0.988 ± 0.091
MIAPACA2 [4], log10 concentration (uM): -2, ectopic expression: empty vector (YAP experiment) | – | 0.79 ± 0.17
MIAPACA2 [4], log10 concentration (uM): -2.30103, ectopic expression: YAP S127A | – | 1.03 ± 0.025
MIAPACA2 [4], log10 concentration (uM): -2.30103, ectopic expression: empty vector (YAP experiment) | – | 0.906 ± 0.068
MIAPACA2 [4], log10 concentration (uM): -3, ectopic expression: YAP S127A | – | 1.05 ± 0.15
MIAPACA2 [4], log10 concentration (uM): -3, ectopic expression: empty vector (YAP experiment) | – | 1.03 ± 0.016
MIAPACA2 [4], log10 concentration (uM): -4, ectopic expression: YAP S127A | – | 1 ± 0.18
MIAPACA2 [4], log10 concentration (uM): -4, ectopic expression: empty vector (YAP experiment) | – | 1 ± 0.079
SW1573, siRNA knockdown (Con = control): Con | 12.3 | –
SW1573, siRNA knockdown (Con = control): TEAD1234_si1 | 0.0109 | –
SW1573, siRNA knockdown (Con = control): TEAD1234_si2 | 0.00411 | –
SW1573, siRNA knockdown (Con = control): YAP_WWTR1_si1 | 0.00287 | –
SW1573, siRNA knockdown (Con = control): YAP_WWTR1_si2 | 0.00342 | –

Settings | IC50 (cell viability, 5 days) [µM]
H1792 | 6.33
